Test results taken from patent US4904673A, “Agent for treating bradycardia and bradyarrhythmia” (Dr. Karl Thomae, GmbH, priority 1988, dated 1990).

Tests used:
[1] = molecular target: T1, muscarinic receptors in submandibular gland (Rattus norvegicus, UniProt P08483); assay: Receptor binding test in vitro, 3H-NMS displacement, submandibular gland homogenate; conditions: rat submandibular gland homogenate 1:400; 0.3 nanomolar 3H-NMS; 30° C., 45 minutes; read-out: Receptor Binding Tests IC50 Submandibular gland
T1 construct: All the organs were then homogenised in a Potter apparatus; from tissue; host or cells: submandibular gland of male Sprague-Dawley rats, homogenate diluted 1:400
Method: (§1) The organs were donated by male Sprague-Dawley rats weighing 180-220 g. […] The whole heart was cut up with scissors. All the organs were then homogenised in a Potter apparatus.
(§2) For the binding test the homogenised organs were diluted as follows:
Submandibular gland 1:400
(§3) Incubation lasted 45 minutes. The radioligand used was 0.3 nanomolar ^3 H-N-methylscopolamine (^3 H-NMS). […] The filters were rinsed with cold buffer and their radioactivity was determined. It represents the sum of specific and non-specific binding of ^3 H-NMS.
(§4) Each measurement was taken four times. […] They represent that concentration of test substance at which the specific binding of ^3 H-NMS to the muscarinic receptors in the various organs was inhibited by 50%.

[2] = tested on: acetylcholine effect on bronchi; assay: Inhibition of the effect of acetylcholine on bronchi (expiration resistance, Konzett-Rossler) in anaesthetised guinea pigs; type: in vivo, guinea pig; conditions: Cavia porcellus, iv, 5 min, 10 microgram/kg acetylcholine i.v. and intra-arterially 5 minutes after test substance, read-out: -log ED50 Bronchi (converted)
Method: (§5) Substances with antimuscarinic properties inhibit the effects of agonists supplied exogenically or of acetylcholine, which is released from cholinergic nerve endings. The following is a description of an "in vivo" method which is suitable for the detection of cardioselective antimuscarinic agents.
(§6) Inhibition of the effect of acetylcholine on the bladder, bronchi and heart rate in guinea pigs
(§7) 5 minutes after the administration of the test substance, 10 microgram/kg of acetylcholine were simultaneously injected intravenously and intra-arterially into anaesthetised guinea pigs. The heart rate was recorded directly by extracorporeal derivation of the ECG, as were the expiration resistance according to Konzett-Rossler and the contraction of the exposed bladder. In order to determine the inhibition of the acetylcholine activity on the organs under investigation, dosage/activity curves were recorded and from them -log ED50 values were determined. For the results see Table II.

[3] = molecular target: muscarinic receptors in cerebral cortex; assay: Receptor binding test in vitro, 3H-NMS displacement, cerebral cortex homogenate; conditions: rat cerebral cortex homogenate 1:3000; 0.3 nanomolar 3H-NMS; 30° C., 45 minutes; read-out: Receptor Binding Tests IC50 Cortex
Method: The organs were donated by male Sprague-Dawley rats weighing 180-220 g. After the heart and subman-dibular gland and cerebral cortex had been removed, all other steps were carried out in ice cold Hepes HCl buffer (pH 7.4; 100 millimolar NaCl, 10 millimolar MgCl2). The whole heart was cut up with scissors. All the organs were then homogenised in a Potter apparatus.
as §2
The homogenised organs were incubated at a certain concentration of the radioligand and at a series of concentrations of the non-radioactive test substances in an Eppendorf centrifuge tube at 30° C. Incubation lasted 45 minutes. The radioligand used was 0.3 nanomolar ^3 H-N-methylscopolamine (^3 H-NMS). Incubation was ended by the addition of ice cold buffer followed by vaccum filtration. The filters were rinsed with cold buffer and their radioactivity was determined. It represents the sum of specific and non-specific binding of ^3 H-NMS.
The proportion of non-specific binding was defined as the radioactivity which was bound in the presence of 1 micromolar quinuclidinyl-benzylate. Each measurement was taken four times. The IC^50 values of the non-labelled test substances were determined graphically. They represent that concentration of test substance at which the specific binding of ^3 H-NMS to the muscarinic receptors in the various organs was inhibited by 50%.

[4] = tested on: acetylcholine effect on bladder; assay: Inhibition of the effect of acetylcholine on contraction of the exposed bladder in anaesthetised guinea pigs; type: in vivo, guinea pig; conditions: Cavia porcellus, iv, 5 min, 10 microgram/kg acetylcholine i.v. and intra-arterially 5 minutes after test substance, read-out: -log ED50 Bladder (converted)
Method: as §5, §6, §7

[5] = tested on: acetylcholine effect on heart rate; assay: Inhibition of the effect of acetylcholine on heart rate in anaesthetised guinea pigs; type: in vivo, guinea pig; conditions: Cavia porcellus, iv, 5 min, 10 microgram/kg acetylcholine i.v. and intra-arterially 5 minutes after test substance, heart rate by ECG, read-out: -log ED50 Heart (converted)
Method: as §5, §6, §7

[6] = molecular target: T2, muscarinic receptors in heart (Rattus norvegicus, UniProt P10980); assay: Receptor binding test in vitro, 3H-NMS displacement, whole heart homogenate; conditions: rat whole heart homogenate 1:400; 0.3 nanomolar 3H-NMS; 30° C., 45 minutes; read-out: Receptor Binding Tests IC50 Heart
T2 construct: The whole heart was cut up with scissors; from tissue; host or cells: whole heart of male Sprague-Dawley rats, homogenate diluted 1:400
T2 sequence (P10980 1-466): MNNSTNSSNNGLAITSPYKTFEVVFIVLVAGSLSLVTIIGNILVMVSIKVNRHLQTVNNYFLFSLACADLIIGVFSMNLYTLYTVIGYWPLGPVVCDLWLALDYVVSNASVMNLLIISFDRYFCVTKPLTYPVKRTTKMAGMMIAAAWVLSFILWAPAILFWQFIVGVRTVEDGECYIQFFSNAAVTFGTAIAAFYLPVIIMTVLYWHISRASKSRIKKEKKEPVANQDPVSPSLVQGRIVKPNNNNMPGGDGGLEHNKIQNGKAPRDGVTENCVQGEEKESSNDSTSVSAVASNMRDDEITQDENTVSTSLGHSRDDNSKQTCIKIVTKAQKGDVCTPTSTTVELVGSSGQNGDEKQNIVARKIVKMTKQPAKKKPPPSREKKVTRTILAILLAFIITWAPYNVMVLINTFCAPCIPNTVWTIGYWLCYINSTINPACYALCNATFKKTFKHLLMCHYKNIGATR
Method: as §1, §2, §3, §4

T1 sequence (P08483 whole entry): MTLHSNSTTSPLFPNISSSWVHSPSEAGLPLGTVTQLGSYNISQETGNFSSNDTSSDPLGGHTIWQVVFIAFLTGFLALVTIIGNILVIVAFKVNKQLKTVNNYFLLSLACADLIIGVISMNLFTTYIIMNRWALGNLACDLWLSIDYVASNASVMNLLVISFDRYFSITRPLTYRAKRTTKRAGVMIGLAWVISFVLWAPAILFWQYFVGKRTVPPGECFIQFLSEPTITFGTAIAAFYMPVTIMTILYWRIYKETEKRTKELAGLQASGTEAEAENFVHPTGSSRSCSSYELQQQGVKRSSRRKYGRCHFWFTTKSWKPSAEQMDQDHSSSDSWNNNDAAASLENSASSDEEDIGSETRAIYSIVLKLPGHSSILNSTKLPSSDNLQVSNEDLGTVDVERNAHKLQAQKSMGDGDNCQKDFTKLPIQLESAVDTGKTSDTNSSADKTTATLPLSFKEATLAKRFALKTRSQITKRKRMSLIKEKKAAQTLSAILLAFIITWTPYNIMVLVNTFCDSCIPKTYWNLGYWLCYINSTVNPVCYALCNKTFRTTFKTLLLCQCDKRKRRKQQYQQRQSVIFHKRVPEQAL

Compound	IC50 [1] [nM]	ED50 [2] [µmol/kg]	IC50 [3] [nM]	ED50 [4] [µmol/kg]	ED50 [5] [µmol/kg]	IC50 [6] [nM]
CCN(CCCC(=O)N1CCC(C(=O)N(C)C)CC1)C(C)Cc1ccc(OC)cc1 (racemic) [A, (±)-1-[4-[ethyl[2-(4-methoxyphenyl)-1-methylethyl]amino]-1-oxobutyl]-N,N-dimethyl-4-piperidine carboxamide]	300	0.148	50	0.513	0.0646	10
CN1[C@@H]2CC[C@H]1C[C@@H](OC(=O)C(CO)c1ccccc1)C2 (stereo partly shown) [B, atropine, reference compound]	–	–	2	–	–	–
